Results on one compound are retold here after patent publication US8207159B2, “Use of galanthamine for the treatment of pathological manifestations of the central nervous system based on intoxications with psychotropic substances” (priority 2001, dated 2012).

Assay [1] has as its system chronically dependent alcoholics. The assay is described as follows: Clinical studies on chronically dependent alcoholics, cognitive performance. Type of assay: in vivo, human. From the text: (§1) A further advantage in this connexion is in particular that better control over the addictive behaviour is made possible, so that the risk of relapse is reduced.
For assay [2], the system named is rats. Nature of the assay: Animal experiments: administration of galanthamine to rats, cognitive abilities. The format is in vivo, rat. The conditions noted are these: restoration did not occur, or occurred only considerably later, in untreated control animals.
Excerpt: as §1

For `COc1ccc2c3c1O[C@H]1C[C@@H](O)C=C[C@@]31CCN(C)C2` [galanthamine, 4a,5,9,10,11,12-hexahydro-3-methoxy-11-methyl-6-H-benzofuro-(3a,3,2-ef)-(2)-benzazepin-6-ol], in assay [1], the “cognitive performance of the subjects” value was “general improvement in the cognitive performance”. Further, the “recovery of cognitive abilities” value in assay [2] is “recovery of cognitive abilities”.
